Data reported in patent US20080241904A1, “PROCESS FOR PRODUCING ISOMALTOSE AND USES THEREOF” (KABUSHIKI KAISHA HAYASHIBARA SEIBUTSU KAGAKU KENKYUJO, priority 2001, published 2008).

How the values were obtained:
[1] = system: α-isomaltosylglucosaccharide-forming enzyme from Bacillus globisporus C9 strain; test: Specificity of saccharide transferring reaction acceptor, enzyme of Strain C9; format: biochemical; parameters: key: −: no saccharide-transferred product was detected through transferring reaction to acceptor; ±: a saccharide-transferred product was detected in an amount of less than one percent through transfer reaction to acceptor; +: a saccharide-transferred product was detected in an amount of at least one percent but less than ten percent through transferring reaction to acceptor; ++: a saccharide-transferred product was detected in an amount of at least ten percent through transferring reaction to acceptor; settings: 1.6% acceptor, 4% PINE-DEX #100 as donor, one unit/g donor, 30° C., pH 6.0, 24 hours; GLC or HPLC
Description: (§1) Using different saccharides, it was tested whether the saccharides were used as saccharide transferring reaction acceptors for the α-isomaltosylglucosaccharide-forming enzyme. A 1.6% solution, as a solution of saccharide transferring reaction acceptor, of D-glucose, D-xylose, L-xylose, D-galactose, D-fructose, D-mannose, D-arabinose, D-fucose, L-sorbose, L-rhamnose, methyl-α-glucopyranoside (methyl-α-glucose), methyl-β-glucopyranoside ([…]), N-acetyl-glucosamine, sorbitol, α,α-trehalose, isomaltose, isomaltotriose, cellobiose, gentibiose, maltitol, lactose, sucrose, α-cyclodextrin, β-cyclodextrin, or γ-cyclodextrin, was prepared. To each solution with a saccharide concentration was added “PINE-DEX #100”, a partial starch hydrolysate, as a saccharide donor, to give a concentration of 4%, and admixed with one unit/g saccharide donor, d.s.b., of either of purified specimens of α-isomaltosylglucosaccharide-forming enzyme from Bacillus globisporus C9 strain obtained by the method in Experiment 2-1, Bacillus globisporus C11 strain obtained by the method in Experiment 4-1. The resulting mixture solutions were incubated at 30° C. and pH 6.0 except that the enzyme from Arthrobacter globiformis A19 strain was incubated at pH 8.4 for 24 hours. The reaction mixtures of the post-enzymatic reactions were analyzed on gas chromatography (abbreviated as “GLC” hereinafter) for monosaccharides and disaccharides as acceptors, and on HPLC for trisaccharides as acceptors to confirm whether these saccharides could be used as their saccharide transferring reaction acceptors. In the case of performing GLC, the following apparatuses and conditions are used: GLC apparatus, “GC-16A” commercialized by Shimadzu Corporation, Tokyo, Japan; column, a stainless-steel column, 3 mm in diameter and 2 m in length, packed with 2% “SILICONE OV-17/CHROMOSOLV W”, commercialized by GL Sciences Inc., Tokyo, Japan; carrier gas, nitrogen gas at a flow rate of 40 ml/min under temperature conditions of increasing from 160° C. to 320° C. at an increasing temperature rate of 7.5° C./min; and detection, a hydrogen flame ionization detector.
(§2) In the case of HPLC analysis, the apparatuses and conditions used were: HPLC apparatus, “CCPD” commercialized by Tosoh Corporation, Tokyo, Japan; column, “ODS-AQ-303” commercialized by YMC Co., Ltd., Tokyo, Japan; eluent, water at a flow rate of 0.5 ml/min; and detection, a differential refractometer.

[2] = system: α-isomaltosylglucosaccharide-forming enzyme from Bacillus globisporus C11 strain; test: Specificity of saccharide transferring reaction acceptor, enzyme of Strain C11; format: biochemical; parameters: key: −: no saccharide-transferred product was detected through transferring reaction to acceptor; ±: a saccharide-transferred product was detected in an amount of less than one percent through transfer reaction to acceptor; +: a saccharide-transferred product was detected in an amount of at least one percent but less than ten percent through transferring reaction to acceptor; ++: a saccharide-transferred product was detected in an amount of at least ten percent through transferring reaction to acceptor; settings: 1.6% acceptor, 4% PINE-DEX #100 as donor, one unit/g donor, 30° C., pH 6.0, 24 hours; GLC or HPLC
Description: as §1, §2

SMILES | Product of saccharide transferring reaction, Enzyme of Strain C9 [1] | Product of saccharide transferring reaction, Enzyme of Strain C11 [2]
O=C[C@@H](O)[C@H](O)[C@H](O)CO [D-Arabinose, D-arabinose] | ± (a saccharide-transferred product was detected in an amount of less than one percent through transfer reaction to acceptor) | ± (a saccharide-transferred product was detected in an amount of less than one percent through transfer reaction to acceptor)
O=C(CO)[C@@H](O)[C@H](O)[C@H](O)CO [D-Fructose, D-fructose] | + (a saccharide-transferred product was detected in an amount of at least one percent but less than ten percent through transferring reaction to acceptor) | + (a saccharide-transferred product was detected in an amount of at least one percent but less than ten percent through transferring reaction to acceptor)
C[C@@H](O)[C@H](O)[C@H](O)[C@@H](O)C=O [D-Fucose, D-fucose] | + (a saccharide-transferred product was detected in an amount of at least one percent but less than ten percent through transferring reaction to acceptor) | + (a saccharide-transferred product was detected in an amount of at least one percent but less than ten percent through transferring reaction to acceptor)
O=C[C@H](O)[C@@H](O)[C@@H](O)[C@H](O)CO [D-Galactose, D-galactose] | + (a saccharide-transferred product was detected in an amount of at least one percent but less than ten percent through transferring reaction to acceptor) | + (a saccharide-transferred product was detected in an amount of at least one percent but less than ten percent through transferring reaction to acceptor)
O=C[C@H](O)[C@@H](O)[C@H](O)[C@H](O)CO [D-Glucose, D-glucose] | + (a saccharide-transferred product was detected in an amount of at least one percent but less than ten percent through transferring reaction to acceptor) | + (a saccharide-transferred product was detected in an amount of at least one percent but less than ten percent through transferring reaction to acceptor)
O=C[C@@H](O)[C@@H](O)[C@H](O)[C@H](O)CO [D-Mannose, D-mannose] | − | −
O=C[C@H](O)[C@@H](O)[C@H](O)CO [D-Xylose, D-xylose] | ++ (a saccharide-transferred product was detected in an amount of at least ten percent through transferring reaction to acceptor) | ++ (a saccharide-transferred product was detected in an amount of at least ten percent through transferring reaction to acceptor)
C[C@H](O)[C@H](O)[C@@H](O)[C@@H](O)C=O [L-Rhamnose, L-rhamnose] | − | −
O=C(CO)[C@@H](O)[C@H](O)[C@@H](O)CO [L-Sorbose, L-sorbose] | + (a saccharide-transferred product was detected in an amount of at least one percent but less than ten percent through transferring reaction to acceptor) | + (a saccharide-transferred product was detected in an amount of at least one percent but less than ten percent through transferring reaction to acceptor)
O=C[C@@H](O)[C@H](O)[C@@H](O)CO [L-Xylose, L-xylose] | ++ (a saccharide-transferred product was detected in an amount of at least ten percent through transferring reaction to acceptor) | ++ (a saccharide-transferred product was detected in an amount of at least ten percent through transferring reaction to acceptor)
CO[C@H]1O[C@H](CO)[C@@H](O)[C@H](O)[C@H]1O [Methyl-α-glucopyranoside, methyl-α-glucopyranoside] | ++ (a saccharide-transferred product was detected in an amount of at least ten percent through transferring reaction to acceptor) | ++ (a saccharide-transferred product was detected in an amount of at least ten percent through transferring reaction to acceptor)
CO[C@@H]1O[C@H](CO)[C@@H](O)[C@H](O)[C@H]1O [Methyl-β-glucopyranoside, methyl-β-glucopyranoside] | ++ (a saccharide-transferred product was detected in an amount of at least ten percent through transferring reaction to acceptor) | ++ (a saccharide-transferred product was detected in an amount of at least ten percent through transferring reaction to acceptor)
CC(=O)N[C@H]1C(O)O[C@H](CO)[C@@H](O)[C@@H]1O (stereo partly shown) [N-Acetyl-glucosamine, N-acetyl-glucosamine] | + (a saccharide-transferred product was detected in an amount of at least one percent but less than ten percent through transferring reaction to acceptor) | + (a saccharide-transferred product was detected in an amount of at least one percent but less than ten percent through transferring reaction to acceptor)
OC[C@@H](O)[C@@H](O)[C@H](O)[C@@H](O)CO [Sorbitol, sorbitol] | − | −
OC[C@H]1O[C@@H]2O[C@H]3[C@H](O)[C@@H](O)[C@@H](O[C@H]4[C@H](O)[C@@H](O)[C@@H](O[C@H]5[C@H](O)[C@@H](O)[C@@H](O[C@H]6[C@H](O)[C@@H](O)[C@@H](O[C@H]7[C@H](O)[C@@H](O)[C@@H](O[C@H]1[C@H](O)[C@H]2O)O[C@@H]7CO)O[C@@H]6CO)O[C@@H]5CO)O[C@@H]4CO)O[C@@H]3CO [α-Cyclodextrin, α-cyclodextrin] | − | −
OC[C@H]1O[C@@H]2O[C@H]3[C@H](O)[C@@H](O)[C@@H](O[C@H]4[C@H](O)[C@@H](O)[C@@H](O[C@H]5[C@H](O)[C@@H](O)[C@@H](O[C@H]6[C@H](O)[C@@H](O)[C@@H](O[C@H]7[C@H](O)[C@@H](O)[C@@H](O[C@H]8[C@H](O)[C@@H](O)[C@@H](O[C@H]1[C@H](O)[C@H]2O)O[C@@H]8CO)O[C@@H]7CO)O[C@@H]6CO)O[C@@H]5CO)O[C@@H]4CO)O[C@@H]3CO [β-Cyclodextrin, β-cyclodextrin] | − | −
OC[C@H]1O[C@@H]2O[C@H]3[C@H](O)[C@@H](O)[C@@H](O[C@H]4[C@H](O)[C@@H](O)[C@@H](O[C@H]5[C@H](O)[C@@H](O)[C@@H](O[C@H]6[C@H](O)[C@@H](O)[C@@H](O[C@H]7[C@H](O)[C@@H](O)[C@@H](O[C@H]8[C@H](O)[C@@H](O)[C@@H](O[C@H]9[C@H](O)[C@@H](O)[C@@H](O[C@H]1[C@H](O)[C@H]2O)O[C@@H]9CO)O[C@@H]8CO)O[C@@H]7CO)O[C@@H]6CO)O[C@@H]5CO)O[C@@H]4CO)O[C@@H]3CO [γ-Cyclodextrin, γ-cyclodextrin] | − | −
